In patent US9884063B2, “Amido-substituted azole compounds” (Bayer Pharma Aktiengesellschaft, priority 2014, dated 2018) one finds IC50 data, which are given here for 21 compounds.

The target in test [1] is T1, TNKS2 (Homo sapiens, UniProt Q9H2K2).
T1 sequence (Q9H2K2 1-1166): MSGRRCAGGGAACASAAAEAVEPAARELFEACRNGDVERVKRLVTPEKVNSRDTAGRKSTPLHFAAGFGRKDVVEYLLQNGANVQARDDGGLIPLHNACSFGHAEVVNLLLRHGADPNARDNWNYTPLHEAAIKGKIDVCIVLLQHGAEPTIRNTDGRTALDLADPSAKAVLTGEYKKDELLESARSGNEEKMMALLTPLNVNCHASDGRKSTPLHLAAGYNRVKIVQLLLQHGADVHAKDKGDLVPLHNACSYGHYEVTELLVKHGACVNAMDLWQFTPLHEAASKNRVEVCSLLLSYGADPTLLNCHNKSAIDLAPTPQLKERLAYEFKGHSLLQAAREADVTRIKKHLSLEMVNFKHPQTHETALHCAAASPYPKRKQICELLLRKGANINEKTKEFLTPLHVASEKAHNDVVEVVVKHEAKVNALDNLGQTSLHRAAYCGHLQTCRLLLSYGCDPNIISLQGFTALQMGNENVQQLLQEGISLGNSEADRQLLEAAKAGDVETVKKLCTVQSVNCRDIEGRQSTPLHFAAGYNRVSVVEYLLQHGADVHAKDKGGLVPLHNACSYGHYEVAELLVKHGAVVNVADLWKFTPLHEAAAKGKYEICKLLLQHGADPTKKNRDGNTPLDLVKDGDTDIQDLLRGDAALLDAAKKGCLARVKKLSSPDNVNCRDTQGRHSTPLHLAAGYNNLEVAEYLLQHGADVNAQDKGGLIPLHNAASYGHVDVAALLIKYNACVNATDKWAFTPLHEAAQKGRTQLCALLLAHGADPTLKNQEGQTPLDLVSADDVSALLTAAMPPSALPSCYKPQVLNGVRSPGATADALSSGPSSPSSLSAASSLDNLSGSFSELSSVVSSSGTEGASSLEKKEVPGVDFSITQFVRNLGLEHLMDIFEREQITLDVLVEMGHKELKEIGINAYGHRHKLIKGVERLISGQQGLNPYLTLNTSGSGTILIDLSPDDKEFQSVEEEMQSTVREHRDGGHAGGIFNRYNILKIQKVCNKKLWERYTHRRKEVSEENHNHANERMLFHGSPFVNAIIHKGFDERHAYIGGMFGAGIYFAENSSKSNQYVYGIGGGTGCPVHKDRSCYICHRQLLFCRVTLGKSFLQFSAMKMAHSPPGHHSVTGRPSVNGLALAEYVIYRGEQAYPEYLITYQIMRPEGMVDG
In words: Modified TNKS2 Assay 3 (BPS kit #80578, biotin-NAD+, 96 well). It counts as biochemical. The settings on record: human TNKS2, BPS kit #80578, 96 well. In outline:
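Commercial kit assay measuring TNKS2-catalysed incorporation of biotin-labelled NAD+ into a protein substrate, detected by streptavidin-HRP chemiluminescence. Run per manufacturer's protocol; IC50 is the concentration halving the normalised signal.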

For test [2], the system named is wildtype Wnt signaling cascade. Put plainly: HEK293 TOP Assay (Super TopFlash luciferase reporter, Wnt-3a stimulated). The settings on record: HEK293 TOP reporter cell line, Wnt-3a at EC50, 16 hours incubation, compound dilution series 50 μM to 15 nM. The class given is cell-based. In outline: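 Compounds (50 μM down to 15 nM, 3.16-fold steps, in CAFTY buffer pH 7.4, 2 mM Ca2+, 0.01% BSA) tested in parallel on TOP and FOP HEK293 reporter lines to define selective wildtype Wnt inhibition. Pathway driven by recombinant human Wnt-3a applied at 2500–5 ng/ml in two-fold dilutions.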
(In general: In a reporter assay the amount or activity of a reporter protein is the signal.)

pIC50: −log10 of the molar value.

Regarding `O=C(Nc1ccc(NC(=O)c2nc[nH]c2C(=O)NCC2CCOCC2)cc1)c1ccc(F)cc1Cl` [Example 233, N^4-{4-[(2-chloro-4-fluorobenzoyl)amino]phenyl}-N^5-(tetrahydro-2H-pyran-4-ylmethyl)-1H-imidazole-4,5-dicarboxamide], the pIC50 (in general, the IC50 on a negative log10 scale, so that one unit is a factor of ten) in test [1] was 6.80; in test [2] (Homo sapiens, HEK293, 16 h), 6.35.
`O=C(Nc1ccc(NC(=O)c2nc[nH]c2C(=O)NCCN2CCC[C@H](O)C2)cc1)c1ccc(F)cc1Cl` [Example 271, N^4-{4-[(2-chloro-4-fluorobenzoyl)amino]phenyl}-N^5-{2-[(3S)-3-hydroxypiperidin-1-yl]ethyl}-1H-imidazole-4,5-dicarboxamide]: the pIC50 in test [1] is 8.70; in test [2] (Homo sapiens, HEK293, 16 h) it was 7.52.
With `CC(CN1CCOCC1)NC(=O)c1[nH]cnc1C(=O)Nc1ccc(NC(=O)c2ccc(F)cc2)cc1` (single isomer, unassigned; enantiomer 1) [Example 295, N^4-{4-[(4-fluorobenzoyl)amino]phenyl}-N^5-[1-(morpholin-4-yl)propan-2-yl]-1H-imidazole-4,5-dicarboxamide (enantiomer 1)], the results for the pIC50 in test [1] and in test [2] were 6.72 and 6.16, respectively.
Regarding `CN1CCC(CNC(=O)c2nc[nH]c2C(=O)Nc2ccc(NC(=O)c3ccc(F)cc3Cl)cc2)C1` (stereo not drawn) [Example 407, N^5-{4-[(2-chloro-4-fluorobenzoyl)amino]phenyl}-N^4-[(1-methylpyrrolidin-3-yl)methyl]-1H-imidazole-4,5-dicarboxamide], the pIC50 was 8.10 in test [1] and 6.64 in test [2] (Homo sapiens, HEK293, 16 h).
In the case of `CCc1nc(C(=O)Nc2ccc(NC(=O)c3ccc(F)cc3Cl)cc2)c(C(=O)NCCN(C)C)[nH]1` [Example 69, N^4-{4-[(2-chloro-4-fluorobenzoyl)amino]phenyl}-N^5-[2-(dimethylamino)ethyl]-2-ethyl-1H-imidazole-4,5-dicarboxamide], the pIC50 is 6.72 in test [1] and 6.72 in test [2] (Homo sapiens, HEK293, 16 h).
With `O=C(Nc1ccc(NC(=O)c2[nH]cnc2C(=O)N2CC(F)C2)cc1)c1cc(F)c(F)cc1Cl` [Example 47, N-{4-[(2-chloro-4,5-difluorobenzoyl)amino]phenyl}-4-[(3-fluoroazetidin-1-yl)carbonyl]-1H-imidazole-5-carboxamide], the pIC50 in test [1] is less than 6.30; in test [2] (Homo sapiens, HEK293, 16 h), 6.47.
On to `CNC(=O)c1nc[nH]c1C(=O)Nc1ccc(NC(=O)c2ccc(C#N)cc2F)cc1` [Example 369, N^5-{4-[(4-cyano-2-fluorobenzoyl)amino]phenyl}-N^4-methyl-1H-imidazole-4,5-dicarboxamide], for which the pIC50 is 7.40 in test [1] and 6.12 in test [2] (Homo sapiens, HEK293, 16 h).
In the case of `CC(CN1CCOCC1)NC(=O)c1[nH]cnc1C(=O)Nc1ccc(NC(=O)c2ccc(F)cc2Cl)cc1` (single isomer, unassigned; enantiomer 1) [Example 269, N^4-{4-[(2-chloro-4-fluorobenzoyl)amino]phenyl}-N^5-[1-(morpholin-4-yl)propan-2-yl]-1H-imidazole-4,5-dicarboxamide (enantiomer 1)], the pIC50 is 6.89 in test [1] and 6.36 in test [2].
For `CC(C)(N)CCNC(=O)c1[nH]cnc1C(=O)Nc1ccc(NC(=O)c2ccc(F)cc2Cl)cc1` [Example 286, N^5-(3-amino-3-methylbutyl)-N^4-{4-[(2-chloro-4-fluorobenzoyl)amino]phenyl}-1H-imidazole-4,5-dicarboxamide], the pIC50 in test [1] was 8.00; in test [2] (Homo sapiens, HEK293, 16 h), 6.34.
In the case of `O=C(Nc1ccc(NC(=O)c2nc[nH]c2C(=O)NCC2CCCO2)cc1)c1ccc(F)cc1Cl` (stereo not drawn) [Example 237, N^4-{4-[(2-chloro-4-fluorobenzoyl)amino]phenyl}-N^5-(tetrahydrofuran-2-ylmethyl)-1H-imidazole-4,5-dicarboxamide], the pIC50 is 6.64 in test [1] and 6.37 in test [2] (Homo sapiens, HEK293, 16 h).
In the case of `CC(C)NCCNC(=O)c1[nH]cnc1C(=O)Nc1ccc(NC(=O)c2ccc(F)cc2Cl)cc1` [Example 288, N^4-{4-[(2-chloro-4-fluorobenzoyl)amino]phenyl}-N^5-[2-(isopropylamino)ethyl]-1H-imidazole-4,5-dicarboxamide], the pIC50 in test [1] is 8.52; in test [2] (Homo sapiens, HEK293, 16 h), 6.00.
With `O=C(Nc1ccc(NC(=O)c2nc[nH]c2C(=O)NCCN2CC[C@@H](F)C2)cc1)c1ccc(F)cc1Cl` [Example 231, N^4-{4-[(2-chloro-4-fluorobenzoyl)amino]phenyl}-N^5-{2-[(3R)-3-fluoropyrrolidin-1-yl]ethyl}-1H-imidazole-4,5-dicarboxamide], the negative logarithm of the IC50 (pIC50) was 7.70 in test [1] and 7.15 in test [2] (Homo sapiens, HEK293, 16 h).
In the case of `O=C(Nc1ccc(NC(=O)c2[nH]cnc2C(=O)N2CC(F)C2)cc1)c1ccc(F)cc1Cl` [Example 41, N-{4-[(2-chloro-4-fluorobenzoyl)amino]phenyl}-4-[(3-fluoroazetidin-1-yl)carbonyl]-1H-imidazole-5-carboxamide], the pIC50 is 7.15 in test [1] and 7.05 in test [2] (Homo sapiens, HEK293, 16 h).
As for `CNC(=O)c1nc[nH]c1C(=O)Nc1ccc(NC(=O)c2ccc(F)cc2Cl)c(OC)c1` [Example 95, N^5-{4-[(2-chloro-4-fluorobenzoyl)amino]-3-methoxyphenyl}-N^4-methyl-1H-imidazole-4,5-dicarboxamide], the pIC50 was 7.22 in test [1] and 6.57 in test [2] (Homo sapiens, HEK293, 16 h).
The corresponding values for `O=C(Nc1ccc(NC(=O)c2nc[nH]c2C(=O)NCC2CC2)cc1)c1ccc(F)cc1Cl` [Example 128, N^4-{4-[(2-chloro-4-fluorobenzoyl)amino]phenyl}-N^5-(cyclopropylmethyl)-1H-imidazole-4,5-dicarboxamide] are less than 6.30 and 6.59.
Take `CCNC(=O)c1[nH]cnc1C(=O)Nc1ccc(NC(=O)c2ccc(F)cc2Cl)cc1` [Example 138, N^4-{4-[(2-chloro-4-fluorobenzoyl)amino]phenyl}-N^5-ethyl-1H-imidazole-4,5-dicarboxamide]: the pIC50 in test [1] is 6.82; in test [2] (Homo sapiens, HEK293, 16 h), 6.59.
Take `O=C(Nc1ccc(NC(=O)c2nc[nH]c2C(=O)NCC2CCOC2)cc1)c1ccc(F)cc1Cl` (stereo not drawn) [Example 235, N^4-{4-[(2-chloro-4-fluorobenzoyl)amino]phenyl}-N^5-(tetrahydrofuran-3-ylmethyl)-1H-imidazole-4,5-dicarboxamide]: the pIC50 in test [1] is 6.82; in test [2] (Homo sapiens, HEK293, 16 h) it was 6.62.
For the compound `CC(C)(O)CNC(=O)c1[nH]cnc1C(=O)Nc1ccc(NC(=O)c2ccc(F)cc2Cl)cc1` [Example 223, N^4-{4-[(2-chloro-4-fluorobenzoyl)amino]phenyl}-N^5-(2-hydroxy-2-methylpropyl)-1H-imidazole-4,5-dicarboxamide], the pIC50 in test [1] was 6.47; in test [2] (Homo sapiens, HEK293, 16 h), 6.48.
The like results for `CNC(=O)c1nc[nH]c1C(=O)Nc1ccc(NC(=O)c2ccccc2Cl)c(OC)c1` [Example 99, N^5-{4-[(2-chlorobenzoyl)amino]-3-methoxyphenyl}-N^4-methyl-1H-imidazole-4,5-dicarboxamide] were, in that order, 7.05 and 6.27.
For `CC(CN1CCOCC1)NC(=O)c1[nH]cnc1C(=O)Nc1ccc(NC(=O)c2ccc(F)cc2)cc1` (single isomer, unassigned; enantiomer 2) [Example 296, N^4-{4-[(4-fluorobenzoyl)amino]phenyl}-N^5-[1-(morpholin-4-yl)propan-2-yl]-1H-imidazole-4,5-dicarboxamide (enantiomer 2)], the results for the pIC50 in test [1] and in test [2] were less than 6.30 and 5.19, respectively.
Take `NC(=O)c1nc[nH]c1C(=O)Nc1ccc(NC(=O)c2ccccc2Cl)cc1` [Example 120, N^5-{4-[(2-chlorobenzoyl)amino]phenyl}-1H-imidazole-4,5-dicarboxamide]: the pIC50 in test [1] was 6.85; in test [2] (Homo sapiens, HEK293, 16 h), 5.92.
